Data published in patent publication US20150368642A1, “LNA OLIGONUCLEOTIDE CARBOHYDRATE CONJUGATES” (HOFFMANN-LA ROCHE INC., priority 2013, published 2015).
Strand notation (5' to 3'): a small letter for the sugar, then the base; units joined by * are phosphorothioate-linked, units joined directly phosphodiester-linked; [ ] holds rarer units or linkages, { } end groups; capitals alone tell only the bases. {Conj1a} = GalNAc carbohydrate conjugate Conj1a; l = locked nucleic acid (LNA); [5mC] = 5-methylcytosine; d = 2'-deoxy (DNA)

What was measured:
[1] = system: ApoB; assay: Non-human primate study, serum ApoB and LDL-C (ApoB conjugates); type: in vivo, cynomolgus monkeys; details: Example 7; single i.v. dose; FIG. 16
Experimental: The primary objective for this study is to investigate selected lipid markers over 7 weeks after a single slow bolus injection of anti-PCSK9 and anti-ApoB LNA conjugated to GalNac cluster (Conj2a) to cynomolgus monkeys and assess the potential toxicity of compounds in monkey. The compounds which were prepared in sterile saline (0.9%) at an initial concentration of 0.625 and 2.5 mg/ml).
Male (PCSK9) or female monkeys (ApoB) monkeys of at least 24 months old are used, and given free access to tap water and 180 g of MWM(E) SQC SHORT expanded diet (Dietex France, SDS, Saint Gratien, France) will be distributed daily per animal. The total quantity of food distributed in each cage will be calculated according to the number of animals in the cage on that day. In addition, fruit or vegetables will be given daily to each animal. The animals will be acclimated to the study conditions for a period of at least 14 days before the beginning of the treatment period. During this period, pre-treatment investigations will be performed. The animals are dosed i.v. at a dose if, for example, 0.25 mg/kg or 1 mg/kg. The dose volume will be 0.4 mL/kg. 2 animals are used per group. After three weeks, the data will be analyzed and a second group of animals using a higher or lower dosing regimen may be initiated—preliminary dose setting is 0.5 mg/kg and 1 mg/kg, or lower than that based on the first data set.
The dose formulations will be administered once on Day 1. Animals will be observed for a period of 7 weeks following treatment, and will be released from the study on Day 51. Day 1 corresponds to the first day of the treatment period. Clinical observations and body weight and food intake (per group) will be recorded prior to and during the study.
The following parameters will be determined for all surviving animals at the occasions indicated below: • full biochemistry panel (complete list below)—on Days −8, 15 and 50, • liver Safety (ASAT, ALP, ALAT, TBIL and GGT only)—on Days 4, 8, 22 and 36, • lipid profile (Total cholesterol, HDL-C, LDL-C and Triglycerides) and Apo-B only—on Days −1, 4, 8, 22, 29, 36, and 43.
Blood (approximately 1.0 mL) is taken into lithium heparin tubes (using the ADVIA 1650 blood biochemistry analyzer): Apo-B, sodium, potassium, chloride, calcium, inorganic phosphorus, glucose, HDL-C, LDL-C, urea, creatinine, total bilirubin (TBIL), total cholesterol, triglycerides, alkaline phosphatase (ALP), alanine aminotransferase (ALAT), aspartate aminotransferase (ASAT), creatine kinase, gamma-glutamyl transferase (GGT), lactate dehydrogenase, total protein, albumin, albumin/globulin ratio.
Other Analysis: WO2011009697 & WO2010142805 provides the methods for the following analysis: qPCR, PCSK9/ApoB mRNA analysis, Other analysis includes PCSK9/ApoB protein ELISA, serum Lp(a) analysis with ELISA (Mercodia No. 10-1106-01), tissue and plasma oligonucleotide analysis (drug content), Extraction of samples, standard- and QC-samples, Oligonucleotide content determination by ELISA. […] There was no indication of hepatotoxicity or nephrotoxicity with the ApoB targeting compounds.

[2] = system: ApoB mRNA; assay: In vivo silencing of ApoB mRNA with monoGalNAc conjugates (branched DNA assay); details: Example 4; C57BL6 mice, single 1 mg/kg i.v., day 7; compared to unconjugated #12; FIG. 7a
Description: Capital letters are LNA nucleosides (such as beta-D-oxy LNA), lower case letters are a DNA nucleoside. Subscript s represents a phosphorothioate internucleoside linkage (region A). LNA cytosines are optionally 5-methyl cytosine. The 2PO linker (region B) is 5′ to the sequence region A, and comprises of two DNA nucleosides linked by phosphodiester linkage, with the internucleoside linkage between the 3′ DNA nucleoside of region A and the 5′ LNA nucleoside of region A also being phosphodiester. A linkage group (Y) may be used to link the conjugate group, when present, to region B, or A (SEQ ID NO 8 and 11). To compare the monoGalNAc conjugates with different linkers and the GalNAc cluster C57BL6 mice were treated i.v. with saline control or with a single dose of 1 mg/kg of ASO conjugated to Mono-GalNAc either without biocleavable linker, with Dithio-linker (SS) or with DNA/PO-linker (PO) (FIG. 7a) or with 0.25 mg/kg of ASO conjugated to Mono-GalNAc or GalNAc cluster (FIG. 7b). After 7 days the animals were sacrificed and RNA was isolated from liver and kidney samples and analysed for ApoB mRNA expression.
C57BL6 mice were dosed i.v. with a single dose of 1 mg/kg or 0.25 mg/kg ASO formulated in saline or saline alone according to the above table. […] Total RNA was extracted from liver and kidney samples and ApoB mRNA levels were analysed using a branched DNA assay.

[3] = system: HBV; assay: HBV mouse hydrodynamic tailvein injection model, HBV DNA in liver by qPCR; type: in vivo, Balb/C mouse
Description: An LNA oligomer can be assessed for antiviral effect in vivo in a mouse strain, such as BALB/c or C57B/6, where HBV replication can be established by hydrodynamic tail vein injection of a plasmid, such as pAAV/HBV1.3, expressing a partially repeated HBV pregenomic RNA (J Virol. 1995 October; 69(10):6158-69) or pAAV2/HBV1.3, a derivative thereof (WuxiAppTech, Wuxi, China). The injection of the plasmid in a high volume of saline, equal to 8-12% of the body mass of the mouse, will result in the accumulation and expression of the viral pregenomic RNA in the liver, subsequently leading to the establishment of an acute HBV infection. Treatment of the animals with an LNA oligomer can be initiated 1 or more days before the injection of the plasmid or 1 day after the injection of the plasmid. Delivery of the LNA oligomer in saline can be done by intravenous or subcutaneous injection.
An in vivo experiment was performed on SEQ ID 55 and SEQ ID 56, the latter being a GalNAC conjugate of the former (conj1a). The LNA compounds were tested for efficacy against HBV in the mouse hydrodynamic tailvein injection model using the Balb/C mouse strain. LNA compounds were be tested at equimolar doses; 2 and 10 mg/kg, single injection (SEQ ID 55) and at 2.7 and 13.5 mg/kg, single injection (SEQ ID 56). The LNA anti-HBV compounds were compared to saline and to entecavir, an inhibitor of the HBV reverse transcriptase. Entecavir was dosed p.o. daily at 0.1 mg/kg. Where applicable, the animals were treated with the LNA compound 24 hours before the hydrodynamic injection. Entecavir was given in daily doses as described starting 24 hours after the hydrodynamic injection. […] All the animals were monitored on a daily basis for body weight changes and clinical signs for the duration of the in vivo study. […] All the blood samples were collected in tubes containing heparin sodium The portion of the left lobe of each liver was used to determine the level of HBV DNA replication by qPCR, as copies per unit weight of liver in which the quantity of total HBV DNA level is subtracted by the quantity of pAAV2/HBV DNA level. […]

Row | Substance | pharmacology (serum ApoB and LDL-C) [1] | ApoB mRNA knock down, activity in the liver [2] | other results
1 | SEQ ID NO 32: GsTstsgsascsascstsgsTsC, 2PO-DNA (5′ca3′), cholesterol; ApoB (CAGTTGACACTGTC; listed as DNA, chemistry not fully specified) | effective |  | 
2 | SEQ ID NO 10: GsCsaststsgsgstsastsTsCsA, 2PO-DNA (5′ca3′), monoGalNAc; ApoB (CAGCATTGGTATTCA; listed as DNA, chemistry not fully specified) |  | clearly improved activity in the liver | 
3 | SEQ ID NO 56: 5′-GsAsGsGscsastsasgscsasgs^mCsAsGsG-3′ with a 5′ GalNac(Conj1a) ({Conj1a}-lG*lA*lG*lG*dC*dA*dT*dA*dG*dC*dA*dG*l[5mC]*lA*lG*lG) |  |  | reduction in viral titer in the liver ([3]; 8 days after delivery of a single dose and 7 days after the initiation of the infection): 90%; effect on replication of HBV / HBV DNA level in the liver ([3]; Balb/C mice, single injection 24 hours before hydrodynamic injection, SEQ ID 55 2 and 10 mg/kg, SEQ ID 56 2.7 and 13.5 mg/kg): excellent dose-dependent antiviral effect
4 | SEQ ID NO 17: GsTstsgsascsascstsgsTsC, GalNAc cluster Conj2a; ApoB (GTTGACACTGTC; listed as DNA, chemistry not fully specified) | effective |  | potency compared to the cholesterol conjugated compound [1]: considerably more potent than the cholesterol conjugated compound
5 | SEQ ID NO 8: GsCsaststsgsgstsastsTsCsA, no cleavable linker, monoGalNAc; ApoB (GCATTGGTATTCA; sugars from the 5' end l2 d8 l3, all phosphorothioate, methylation of C not given here; monoGalNAc conjugated without cleavable linker) |  | clearly improved activity in the liver | 
6 | SEQ ID NO 14: GsCsaststsgsgstsastsTsCsA, 2PO-DNA (5′ca3′), cholesterol; ApoB (CAGCATTGGTATTCA; chemistry not fully specified) | did not exhibit significant pharmacology |  | 
